The source of these data is patent publication US20260183274A1, “PDK1 REGULATORY COMPOUND AND COMPOSITION CONTAINING THE SAME” (PROVIBIO CO., LTD., priority 2024, published 2026).

pIC50: −log10 of the molar value.

The test system of series [1] is Human Colorectal Carcinoma cell line, HCT-116. Put plainly: Relative cell viability CCK-8, HCT-116. The format is cell-based. As to conditions: 48 hours; for viability at 1 µM / viability at 10 µM / viability at 30 µM / viability at 50 µM: Homo sapiens, HCT-116. The procedure:
(§1) Human-derived breast cancer cell line MCF-7, human-derived lung cancer cell line A549, human-derived colorectal cancer cell line HCT-116, human pancreatic cancer cell line AsPC-1, glioblastoma cell line A172, and melanoma cell line Malme-3M were obtained from the Korean Cell Bank. gastric cancer cell line SNU-719, and bladder cancer cell line T24 were cultured in RPMI-1640 medium containing 10% FBS.
(§2) Following stabilization, the cells were harvested using Trypsin-EDTA treatment, centrifuged at 1,200 rpm for 3 minutes, the supernatant was removed, and the cells were resuspended in the same medium. They were then seeded into a 96-well plate (Costar 96-well cell culture plate, Corning) at 100 μL per well, and the conditions were adjusted as indicated in Table 5.
(§3) The cells were cultured in a 5% CO2 incubator at 37° C. for 24 hours, and after stabilization of the cells, each plate was washed with 200 μL of PBS per well and treated with 50 μL of culture medium per well.
(§4) After that, 10 μL of CCK-8 was added to each well, and the plate was incubated again at 37° C. in a 5% CO2 incubator for 2 hours.
(§5) In other words, when the survival rate of untreated cells (DMSO) is set at 100%, the relative cell survival rate in each group treated with the drug at different concentrations is indicated.

The target of another series is T1, PDK1 (Homo sapiens, UniProt O15530).
T1 construct: purchased Promega V9681
T1 sequence (O15530 1-556): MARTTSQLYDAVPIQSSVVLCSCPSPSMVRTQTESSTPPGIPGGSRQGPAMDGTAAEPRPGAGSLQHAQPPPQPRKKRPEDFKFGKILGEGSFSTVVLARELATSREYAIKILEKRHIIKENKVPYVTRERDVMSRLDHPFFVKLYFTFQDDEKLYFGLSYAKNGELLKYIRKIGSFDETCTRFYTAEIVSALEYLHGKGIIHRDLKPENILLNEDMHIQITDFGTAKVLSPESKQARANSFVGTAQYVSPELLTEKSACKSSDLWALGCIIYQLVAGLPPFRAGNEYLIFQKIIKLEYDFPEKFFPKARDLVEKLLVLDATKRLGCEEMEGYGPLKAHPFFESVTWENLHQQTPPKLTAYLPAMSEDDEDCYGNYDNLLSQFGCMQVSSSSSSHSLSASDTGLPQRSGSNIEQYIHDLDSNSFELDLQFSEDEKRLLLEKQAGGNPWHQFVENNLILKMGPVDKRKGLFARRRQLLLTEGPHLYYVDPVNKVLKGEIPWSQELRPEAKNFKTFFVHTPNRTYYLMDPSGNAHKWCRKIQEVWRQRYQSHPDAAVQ
Put plainly: PDK1 kinase activity inhibition, IC50 (in vitro kinase assay, luminescence). The format is biochemical. To be noted: FIG. 4; read-out: IC50 for inhibiting PDK1 kinase activity. The protocol:
As shown in the table below, this invention establishes an in vitro kinase assay system to quantitatively evaluate PDK1 kinase activity inhibition, and utilizes this system to compare and analyze the activity of new PDK1 inhibitor candidate compounds.
Specifically, after reacting ATP (100 μM), substrate (PDKtide, 0.5 μg/μL), and PDK1 enzyme (30 ng) at a specific concentration, the difference in ATP consumption between the group treated with each candidate compound and the DMSO control group was measured using luciferase-based luminescence signals (RLU).
Additionally, enzyme kinetics analysis was performed to quantitatively analyze the effect of the compounds of the present invention on the enzymatic activity of PDK1 (3-Phosphoinositide-dependent protein kinase-1) and to confirm the inhibition pattern.
Prior to the analysis, the half-maximal inhibitory concentration (IC50) values of the compounds GO15F, GO86, and GO88 of the present invention for inhibiting PDK1 kinase activity were determined, and the results are shown in FIG. 4.

The subject of series [2] is HCT-116 colon cancer cell lines. Put plainly: Matrigel Invasion Assay, HCT-116. The format is cell-based, human. To be noted: 24 hours treatment, FIG. 30. The procedure: To evaluate the metastasis inhibitory efficacy of the compounds of the present invention on HCT-116 colon cancer cell lines, an Invasion Assay using Matrigel was performed to assess the cells' invasion ability.
First, Matrigel was thawed on ice in RPMI-1640 medium without FBS, then diluted with DMEM at a ratio of 1:20.
The diluted Matrigel mixture was applied to the upper chamber at 100 μl per well, and 750 μl of RPMI-1640 without FBS was added to the lower chamber.
The plates were then incubated at 37° C. for 1 hour to allow the Matrigel to solidify.
After coating, the Matrigel mixture in the upper chamber was removed using a pipette, and the chamber was washed with RPMI without FBS.
Human-derived colorectal cancer cell line HCT-116, obtained from the Korean Cell Bank, was cultured in RPMI-1640 medium containing 10% FBS.
Following stabilization, the cells were harvested using Trypsin-EDTA treatment, centrifuged at 1,200 rpm for 3 minutes, the supernatant was removed, and the cells were resuspended in the same medium, the medium in the lower chamber was replaced with 750 μl of RPMI-1640 supplemented with 10% FBS, and the cells were seeded into the upper chamber at a density of 5×10^4 cells/well.
The cells were cultured for 24 hours after attachment, and then the compounds according to the present invention (G078, G085, G086, G088, G089, PBK-2024-010, PBK-2025-010, PBK-2025-013, PBK-2025-016) and the control substance DMSO were diluted and added to the upper chamber after removing the medium.
Additionally, the medium in the lower chamber was replaced with fresh RPMI-1640 containing FBS, and the culture was continued.
After an additional 24 hours, the medium was removed, and 1 ml of methanol was added for 10 minutes to fix the cells.
Subsequently, 1 ml of Hematoxylin was added and reacted for 5 minutes, followed by 1 ml of Eosin, which was reacted for 30 seconds. The sample was then washed with distilled water (DW).
After staining was complete, any remaining cells in the upper chamber were removed. Finally, the infiltrated cells were observed under a microscope, photographed, and the degree of infiltration was analyzed.

Series [3] has as its system Human Melanoma cancer cell, Malme-3M. Put plainly: Relative cell viability CCK-8, Malme-3M. The format is cell-based. To be noted: 48 hours. The protocol: as §1, §2, §3, §4, §5
The subject of series [4] is Human Bladder cancer cell, T24. Put plainly: Relative cell viability CCK-8, T24. The format is cell-based. As to conditions: for Relative cell viability (%), T24: 48 hours. The protocol:
as §1, §2, §3, §4, §5

Series [5] concerns Human Osteosarcoma, Saos-2. Put plainly: Relative cell viability CCK-8, Saos-2. As to conditions: for Relative cell viability (%), Saos-2: 48 hours. The format is cell-based. The procedure:
Human-derived head and neck cancer cell line Fadu and osteosarcoma cell line Saos-2 were cultured in MEM medium containing 10% FBS, 100 U/mL penicillin, and 100 μg/mL streptomycin.
as §2, §3, §4, §5

In series [6] the test system is Human Pancreas Adenocarcinoma cell line, AsPC-1. Put plainly: Relative cell viability CCK-8, AsPC-1. To be noted: 48 hours; for viability at 1 µM: ASPC1, 1 μM; for viability at 10 µM: ASPC1, 10 μM; for viability at 30 µM: ASPC1, 30 μM; for viability at 50 µM: ASPC1, 50 μM. The format is cell-based. The protocol: as §1, §2, §3, §4, §5

One may read the pIC50 as −log10 of the IC50, conventionally taken in molar units. Regarding `CC1(C)CN(CCCCCCCCCCCCC(=O)Nc2nc(N)c3[nH]cnc3n2)CCO1` [Compound 11, 12-[4-(2,2-dimethylmorpholin-4-yl)]dodecyl-N-(6-aminopurine-2-yl) carboxamide], the “Relative cell viability (%), HCT-116” value is listed as 21.36% in series [1] (1 μM), 24.91% in series [1] (10 μM), 24.78% in series [1] (30 μM) and 25.26% in series [1] (50 μM). Moreover, the negative logarithm of the IC50 (pIC50) on PDK1 is 7.95. Also, the “Number of infiltrated cells (invasion)” value in series [2] is listed as “reduction in the number of infiltrated cells”. The “Relative cell viability (%), Malme-3M” value in series [3] (1 μM) is 44.06%; in series [3] (10 μM), 37.40%; in series [3] (30 μM), 36.80%; in series [3] (50 μM), 38.87%. Also, the “Relative cell viability (%), T24” value amounted to 28.15% in series [4] (1 μM), 31.17% in series [4] (10 μM), 30.42% in series [4] (30 μM) and 29.34% in series [4] (50 μM). For the same compound, the “Relative cell viability (%), Saos-2” value in series [5] (1 μM) came to 36.73%; in series [5] (10 μM), 24.98%; in series [5] (30 μM), 16.00%; in series [5] (50 μM), 36.73%.

The term viability denotes a per cent measure of how many cells are alive, often set against a control. Consider `Nc1ncccc1C(=O)NCCCCCCCCCCCCN1CCNCC1` [Compound 14, 2-Amino-N-(12-(piperazin-1-yl)dodecyl)nicotinamide], for which the viability at 1 µM in series [6] is 43.1%; in series [1] (1 μM), 14.2%; in series [3] (Homo sapiens, Malme-3M, 1 μM), 43.7%; in series [5] (Homo sapiens, SAOS-2, 48 h, 1 μM) it was 47.1%. The viability at 10 µM in series [6] came to 45.4%; in series [1] (10 μM), 12.3%; in series [3] (Homo sapiens, Malme-3M, 10 μM), 31.2%; in series [5] (Homo sapiens, SAOS-2, 48 h, 10 μM), 34.2%. For the same compound, the viability at 30 µM was found to be 36.8% in series [6]; 9.38% in series [1] (30 μM); 16.3% in series [3] (Homo sapiens, Malme-3M, 30 μM); 16.3% in series [5] (Homo sapiens, SAOS-2, 48 h, 30 μM). In addition, the viability at 50 µM in series [6] was found to be 30.5%; in series [1] (50 μM), 7.61%; in series [3] (Homo sapiens, Malme-3M, 50 μM), 15.9%. Also, the pIC50 at PDK1 was 7.89. In addition, the “Relative cell viability (%), T24” value in series [4] (1 μM, listed as GO88, 1 µM) came to 9.88%; in series [4] (10 μM, listed as GO88, 10 µM), 11.01%; in series [4] (30 μM, listed as GO88, 30 µM), 9.22%; in series [4] (50 μM, listed as GO88, 50 µM), 7.47%. For the same compound, in series [5] (50 μM, listed as GO88, 50 µM), the “Relative cell viability (%), Saos-2” value is 0.00%.

Regarding `Nc1nc(NC(=O)CCCCCCCCCCCCN2CCN(CCO)CC2)nc2nc[nH]c12` [Compound 15, 12-[4-(2-hydroxyethyl)piperazin-1-yl]dodecyl-N-(6-aminopurine-2-yl) carboxamide], the viability at 1 µM was found to be 40.9% in series [6]; 12.1% in series [1] (1 μM); 7.92% in series [4] (Homo sapiens, 48 h, 1 μM). Also, the viability at 10 µM in series [6] stood at 42.8%; in series [1] (10 μM), 11.5%; in series [4] (Homo sapiens, 48 h, 10 μM), 9.29%. Moreover, the viability at 30 µM amounted to 44.1% in series [6]; 10% in series [1] (30 μM); 9.57% in series [4] (Homo sapiens, 48 h, 30 μM). For the same compound, the viability at 50 µM stood at 41.5% in series [6]; 9.08% in series [1] (50 μM); 8.75% in series [4] (Homo sapiens, 48 h, 50 μM). The “Number of infiltrated cells (invasion)” value in series [2] is “reduction in the number of infiltrated cells”.

Consider `Nc1ncccc1C(=O)NCCCCCCCCCCCCN1CCNCC1` [Compound 5, 2-Amino-N-(12-(piperazin-1-yl)dodecyl)-nicotinamide], for which the “Number of infiltrated cells (invasion)” value in series [2] is recorded as “reduction in the number of infiltrated cells”. Besides, the “Relative cell viability (%), T24” value came to 28.34% in series [4] (1 μM, listed as GO78, 1 µM); 30.42% in series [4] (10 μM, listed as GO78, 10 µM); 29.73% in series [4] (30 μM, listed as GO78, 30 µM); 29.32% in series [4] (50 μM, listed as GO78, 50 µM). Further, the “Relative cell viability (%), Saos-2” value in series [5] (1 μM, listed as GO78, 1 µM) is listed as 28.36%; in series [5] (10 μM, listed as GO78, 10 µM) it was 33.69%; in series [5] (30 μM, listed as GO78, 30 µM), 19.77%; in series [5] (50 μM, listed as GO78, 50 µM), 2.60%.

On to `Nc1ncccc1C(=O)NCCCCCCCCCCCCF` [Compound 57, 2-Amino-N-(12-fluoro-dodecyl)-nicotinamide], for which the pIC50 at PDK1 is 6.42.
